Results reported in patent US20180289665A1, “USE OF CANNABIS TO TREAT MIGRAINE” (ONE WORLD CANNABIS LTD, priority 2014, published 2018).

Key:
[1] = system: dural blood vessel dilation; settings: dilation from electrical stimulation, calcitonin gene-related peptide, nitrous oxide and capsaicin; reversed by a cannabinoid antagonist; cited from earlier work
[2] = system: patients with acute migraine attack; assay: Clinical trial of THC vs ibuprofen in acute migraine attack (Example 2); type: in vivo, human; settings: primary endpoint; assumption for sample size
Source text: To assess the effect of Tetrahydrocannabinol (THC) or a derivative thereof vs. NSAIDs (such as ibuprofen) in relieving acute migraine attack.
This example provides a prospective randomized double-blind, placebo-controlled trial.
The study population includes patients presenting with chief complaint an acute migraine attack to the emergency department (ED) at Soroka University Medical Center.
The study population is randomized into “double dummy” design (ratio 1:1): • Group 1—received Tetrahydrocannabinol (THC) and placebo tab ibuprofen. • Group 2—received placebo Tetrahydrocannabinol (THC) drops and tab ibuprofen.
The THC study doses include dose rages of between about 5 mg and up to 50 mg THC, preferably dose ranges of between about 10 mg THC and about 30 mg THC.
According to one embodiment, an ethanol extracted cannabis oil dissolved in a vegetable oil (with a distinct taste to differentiate it from the placebo oil) is used in this study. The aforementioned cannabis composition comprises THC dose range of about 20 mg to about 40 mg.
Headache and nausea severity is assessed using a 4-point pain severity scale (score 0-3) as detailed above. […] Additionally, THC blood levels are measured at about 30, 60 minutes and 2 hours. […]

Structure (SMILES)	dural blood vessel dilation [1]	expected treatment failure rate [2]
CCCCC/C=C\C/C=C\C/C=C\C/C=C\CCCC(=O)NCCO [AEA, N-arachidonoylethanolamine]	inhibit	
CCCCCc1cc(O)c2c(c1)OC(C)(C)[C@@H]1CCC(C)=C[C@@H]21 [THC, Δ9-Tetrahydrocannabinol]		40%
